Our source for the GI50 and TGI values is PubChem BioAssay (NCI).

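The compound was tested at five concentrations on cells cultured in 96-well plates, with a 48-hour exposure period. GI50: concentration for 50% inhibition of growth. TGI: total growth inhibition.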

What all share (experiment): NCI tumour cell line growth inhibition, 48 h
The test system of experiment [1] is NCI-H522 lung.
Experiment [2] has as its system NCI-H460 lung.
Experiment [3] has as its system 786-0 renal.
In experiment [4] the test system is SN12C renal.
The subject of experiment [5] is SF-268 CNS.
Experiment [6] has as its system KM12 colon.
Experiment [7] deals with SK-OV-3 ovarian.
The test system of experiment [8] is IGROV1 ovarian.
Experiment [9] relates to UACC-257 melanoma.
For experiment [10], the system named is HCT-15 colon.

For the molecule `OCC#Cc1ccccc1C#Cc1ccc(C#Cc2ccccc2C#CCO)cc1`, the GI50 in [1] is 50.1 µM; in [2], 28.3 µM; in experiment [3], 32 µM; in [4], 31.6 µM; in experiment [5] it was 35.1 µM; in [6], 95.8 µM. Also, the GI50 in experiment [7] was 55.4 µM; in experiment [8], 30.4 µM; in [9], 89.5 µM; in experiment [10], more than 100 µM. The TGI was more than 100 µM in experiment [1]; more than 100 µM in experiment [2]; 82.6 µM in experiment [3]; more than 100 µM in experiment [4]; more than 100 µM in experiment [5]; more than 100 µM in experiment [6]. Besides, the TGI in [7], in experiment [8], in [9] and in experiment [10] was more than 100 µM each time.

As for `COc1ccc2c(c1)C(=O)/C(=C/c1ccc(O)cc1)O2`, the GI50 in experiment [1] is 1.86 µM; in experiment [2] it was 20.3 µM; in experiment [3] it was 17.9 µM; in experiment [4] it was 14.1 µM; in [5], 14.8 µM; in experiment [6] it was 8.78 µM. The GI50 is 52.7 µM in experiment [7], 6.87 µM in experiment [8], 19.8 µM in experiment [9] and 4.2 µM in experiment [10]. The TGI in experiment [1] came to 3.75 µM; in experiment [2] it was 50.3 µM; in [3], 41.4 µM; in experiment [4] it was 32 µM; in experiment [5], 41.1 µM; in [6], 22.8 µM. The TGI in experiment [7] was more than 100 µM; in experiment [8], 20.8 µM; in experiment [9] it was 35.2 µM; in experiment [10], 15.8 µM.

For the molecule `Clc1ccc(-c2nnc(-c3nn(-c4ccccc4)c4nc5ccccc5nc34)o2)cc1`, the TGI in experiment [1], in experiment [2], in [3], in experiment [4], in experiment [5] and in experiment [6] was more than 100 µM each time. In addition, the TGI in experiment [7], in experiment [8], in [9] and in experiment [10] was more than 100 µM throughout.

`CC1CCCc2c1n[nH]c2CC1CC(=O)NC(=O)C1` (centres undefined): the TGI in [1], in experiment [2], in experiment [3], in experiment [4], in experiment [5] and in experiment [6] was more than 100 µM throughout. In addition, the TGI in experiment [7], in experiment [8], in experiment [9] and in experiment [10] was more than 100 µM in each case.

For the molecule `O=C(N/N=C/c1ccc([N+](=O)[O-])cc1)c1ccccc1Nc1ccnc(C(F)(F)F)c1`, the GI50 in experiment [1] was 12.5 µM; in experiment [2], 21.3 µM; in experiment [3], 32.7 µM; in [4], 26.3 µM; in experiment [5], 10.5 µM; in experiment [6] it was 2.75 µM. Also, the GI50 in experiment [7] is 28 µM; in experiment [8], 6.25 µM; in experiment [9], 11.6 µM; in experiment [10], 3.8 µM. In addition, the TGI in experiment [1] was 38.3 µM; in experiment [2], 52.9 µM; in experiment [3] it was more than 100 µM; in experiment [4], more than 100 µM; in [5] it was 82.8 µM; in experiment [6], 55.4 µM. In addition, the TGI in experiment [7] is 81.4 µM; in experiment [8], 19.2 µM; in [9] it was 37.9 µM; in experiment [10], more than 100 µM.

With `O=c1oc2ccc(F)cc2c(=O)n1-c1ccc(I)cc1F`, the GI50 in experiment [1] is 0.322 µM; in [2], 0.404 µM; in experiment [3], 1.67 µM; in experiment [4], 0.381 µM; in experiment [5] it was 0.435 µM; in [6], 1.92 µM. For the same molecule, the GI50 in experiment [7] was 0.522 µM; in experiment [8], 0.397 µM; in experiment [9], 0.432 µM; in experiment [10] it was 0.471 µM. Besides, the TGI is 9.85 µM in experiment [2]; 8.1 µM in experiment [3]; 5.45 µM in experiment [4]; 8.25 µM in [5]; 5.38 µM in [6]; 10.5 µM in experiment [7]. Also, the results for the TGI in experiment [8], in experiment [9] and in experiment [10] were 15.6 µM, 4.79 µM and 10.9 µM, respectively.

Regarding `COC(=O)CCCCCOS(=O)(=O)c1ccc(C)cc1`, the TGI in experiment [1], in [2], in [3], in [4], in experiment [5] and in experiment [6] was more than 100 µM in each case. In addition, the TGI in experiment [7], in experiment [8], in [9] and in [10] was more than 100 µM each time.

On to `NC(=O)c1ccc(I)c([N+](=O)[O-])c1`, for which the GI50 is 6.06 µM in [1]; more than 100 µM in experiment [2]; more than 100 µM in [3]; more than 75.9 µM in experiment [4]; more than 100 µM in experiment [5]; more than 100 µM in [6]. Besides, the GI50 in experiment [7] was more than 100 µM; in [8] it was more than 100 µM; in experiment [9] it was more than 80.4 µM; in experiment [10] it was more than 77.3 µM. Moreover, the TGI was 14.6 µM in experiment [1]; more than 100 µM in [2]; more than 100 µM in experiment [3]; more than 100 µM in experiment [4]; more than 100 µM in experiment [5]; more than 100 µM in experiment [6]. Further, the TGI in [7], in experiment [8], in experiment [9] and in [10] was more than 100 µM in each case.

As to `COC(=O)[C@@H](C)C[C@H](Cc1ccc(F)cc1)NC(=O)c1csc([C@@H](C[C@H](C(C)C)N(C)C(=O)[C@@H](NC(=O)[C@H]2CCCCN2C)C2CC2)OC(C)=O)n1`, the GI50 in experiment [1] was 0.0577 µM; in [2], 0.255 µM; in experiment [3] it was 0.831 µM; in experiment [4], 0.357 µM; in experiment [5], 1.16 µM; in [6], 0.28 µM. Also, the GI50 in experiment [7] was 5.39 µM; in experiment [8], 0.34 µM; in [9], more than 15.5 µM; in experiment [10] it was 0.828 µM. Also, the TGI in [1] was 0.213 µM; in experiment [2], more than 25 µM; in experiment [3], more than 25 µM; in experiment [4], more than 25 µM; in [5], more than 25 µM; in experiment [6], more than 25 µM. Further, the TGI in experiment [7], in experiment [8], in experiment [9] and in experiment [10] was more than 25 µM each time.

In the case of `COc1cccc(/C=C2\N=C(Cl)OC2=O)c1O`, the TGI in experiment [1], in [2], in experiment [3], in experiment [4], in experiment [5] and in experiment [6] was more than 100 µM throughout. In addition, the TGI in experiment [7], in experiment [8], in [9] and in experiment [10] was more than 100 µM throughout.

Turning to `CC1(C)N=C(N)N=C(N)N1c1cccc(CCCCc2ccc(Cl)c(S(=O)(=O)F)c2)c1`, the GI50 is 1.26 µM in experiment [1]; 0.938 µM in [2]; 2.67 µM in experiment [3]; 0.967 µM in experiment [4]; 1.47 µM in experiment [5]; 1.79 µM in experiment [6]. Moreover, the GI50 was 11.7 µM in experiment [7], 0.66 µM in experiment [8], 1.14 µM in [9] and 6.47 µM in experiment [10]. For the same molecule, the TGI in experiment [1] is 18.8 µM; in [2] it was 14.5 µM; in experiment [3] it was 16.3 µM; in experiment [4] it was 16.4 µM; in [5], 16.2 µM; in [6], 15.6 µM. The TGI in [7] is 27.8 µM; in [8], 18.8 µM; in [9], 18.7 µM; in experiment [10] it was more than 100 µM.

For the molecule `O=C1CC=C2C3CC4N(CCC45c4ccccc4N1C25)C/C3=C\CO` (centres undefined), the TGI in experiment [1], in experiment [2], in experiment [3], in [4], in [5] and in [6] was more than 100 µM each time. Moreover, the TGI in experiment [7], in [8], in experiment [9] and in [10] was more than 100 µM each time.

Regarding `[Mn+3].[O-][Cl+3]([O-])([O-])O.[O-]c1ccccc1C=NCCN1CC1.[O-]c1ccccc1C=NCCN1CC1`, the GI50 in [1] was 27.8 µM; in [2], 27 µM; in experiment [3], 27.2 µM; in experiment [4], 19.4 µM; in [5] it was 15.9 µM; in [6], 17 µM. Moreover, the GI50 is 35.2 µM in experiment [7], 20.9 µM in [8], 18.1 µM in [9] and 4.15 µM in experiment [10]. Further, the TGI in experiment [1] was more than 100 µM; in [2], more than 100 µM; in [3], more than 100 µM; in experiment [4], more than 100 µM; in experiment [5] it was more than 100 µM; in experiment [6], 39 µM. Further, the TGI in experiment [7] was more than 100 µM; in experiment [8], 62.3 µM; in experiment [9] it was 46.2 µM; in [10], 18.3 µM.
